Reference: ChEMBL document CHEMBL1201862, “PubChem BioAssay data set” (2004)
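Growth conditions: 96-well plates. Treatment: test compound, 48 hours, 5 concentrations. Analysis: linear interpolation between bracketing concentrations; unreached endpoints set to highest concentration. GI50 is the concentration that inhibits growth by half.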 Calls of active or inactive are those of the source. No stated cut-off is given here; in the data, active = GI50 up to about 1.1 µM and inactive = higher.

What was measured:
Assay in all cases: NCI anticancer screen, dose series, 48 h
UACC-257 = test system: UACC-257
UACC-62 = test system: UACC-62
HT-29 = test system: HT-29
MCF7 = test system: MCF7
SK-MEL-28 = test system: SK-MEL-28
UO-31 = test system: UO-31
A498 = test system: A498
MDA-MB-231 = test system: MDA-MB-231
HCT-116 = test system: HCT-116
RXF 393 = test system: RXF 393
SW-620 = test system: SW-620
Malme-3M = test system: Malme-3M
SN12C = test system: SN12C
OVCAR-3 = test system: OVCAR-3
MDA-N = test system: MDA-N
MOLT-4 = test system: MOLT-4
HOP-62 = test system: HOP-62
NCI/ADR-RES = test system: NCI/ADR-RES

SMILES | GI50 (UACC-257) | GI50 (UACC-62) | GI50 (HT-29) | GI50 (MCF7) | GI50 (SK-MEL-28) | GI50 (UO-31) | GI50 (A498) | GI50 (MDA-MB-231) | GI50 (HCT-116) | GI50 (RXF 393) | GI50 (SW-620) | GI50 (Malme-3M) | GI50 (SN12C) | GI50 (OVCAR-3) | GI50 (MDA-N) | GI50 (MOLT-4) | GI50 (HOP-62) | GI50 (NCI/ADR-RES)
O=C(c1ccccc1)c1ccc2nc3n(c2c1)C(c1c(F)cccc1F)SC3 (configuration not stated) | 18.1 µM (inactive) | 4.47 µM (inactive) | 4.93 µM (inactive) | 3.85 µM (inactive) | 22.3 µM (inactive) | 5.4 µM (inactive) | 3.7 µM (inactive) | 12.9 µM (inactive) | 3.26 µM (inactive) | 13.2 µM (inactive) | 3.18 µM (inactive) | 5.68 µM (inactive) | 7.69 µM (inactive) | 4.9 µM (inactive) | 1.34 µM (inactive) | 2.74 µM (inactive) | 8.81 µM (inactive) | 2.99 µM (inactive)
CC(C)=CCc1c(O)c(CC=C(C)C)c2oc3c(c(=O)c2c1O)C(C=C(C)C)Oc1cc(O)ccc1-3 (configuration not stated) | 14 µM (inactive) | 6.37 µM (inactive) | 10.3 µM (inactive) | 4.98 µM (inactive) | 7.53 µM (inactive) | 4.19 µM (inactive) | 16.2 µM (inactive) | 12.4 µM (inactive) | 3.74 µM (inactive) | 3.12 µM (inactive) | 4.17 µM (inactive) | 20.7 µM (inactive) | 6.9 µM (inactive) | 4.18 µM (inactive) | 3.32 µM (inactive) | 3.84 µM (inactive) | 12.5 µM (inactive) | 12.1 µM (inactive)
CN1[C@@H]2CCCC[C@H]2N(C)P1(=O)C(O)/C=C/c1ccccc1 (some centres not stated) | > 100 µM (inactive) | > 100 µM (inactive) | > 100 µM (inactive) | > 100 µM (inactive) | > 100 µM (inactive) | > 100 µM (inactive) | > 100 µM (inactive) | > 100 µM (inactive) | > 100 µM (inactive) | > 100 µM (inactive) | > 100 µM (inactive) | > 100 µM (inactive) | > 100 µM (inactive) | > 100 µM (inactive) | > 100 µM (inactive) | > 100 µM (inactive) | > 100 µM (inactive) | > 100 µM (inactive)
COc1ccc(C2C3=C(COC3=O)Oc3cc4c(cc32)OCO4)cc1OC (configuration not stated) | 6.87 µM (inactive) | 0.859 µM (active) | 0.395 µM (active) | 0.408 µM (active) | 1.16 µM (inactive) | 3.73 µM (inactive) | 0.352 µM (active) | 3.4 µM (inactive) | 0.465 µM (active) | 0.891 µM (active) | 0.492 µM (active) | 0.682 µM (active) | 5.26 µM (inactive) | 1.38 µM (inactive) | 0.135 µM (active) | 0.466 µM (active) | 1.44 µM (inactive) | 0.33 µM (active)
N#Cc1c(-c2ccc(Cl)cc2)cc(-c2ccc(Nc3ccnc4cc(Cl)ccc34)cc2)[nH]c1=O | > 100 µM (inactive) | > 100 µM (inactive) | > 100 µM (inactive) | > 100 µM (inactive) | > 100 µM (inactive) | > 100 µM (inactive) | 50.4 µM (inactive) | 34.4 µM (inactive) | 44.2 µM (inactive) | 30.4 µM (inactive) | > 100 µM (inactive) | > 65.8 µM (inactive) |  | > 100 µM (inactive) | > 100 µM (inactive) | > 58.6 µM (inactive) | 15.1 µM (inactive) | > 100 µM (inactive)
CCN(CC)CCCNc1ccc([N+](=O)[O-])c2nc3ccccc3c(N)c12 | 4.88 µM (inactive) | 2.75 µM (inactive) | 0.437 µM (active) | 0.402 µM (active) | 3.98 µM (inactive) | 1.57 µM (inactive) | 2.32 µM (inactive) | 0.442 µM (active) | 0.544 µM (active) | 0.37 µM (active) | 0.365 µM (active) | 2.48 µM (inactive) | 0.74 µM (active) | 1.55 µM (inactive) | 0.492 µM (active) | 0.302 µM (active) | 5.56 µM (inactive) | 0.668 µM (active)
CC(=O)OCC12C(OC(C)=O)C[C@@H](C)C3(CC(c4ccoc4)OC3=O)C1CCC(OC(C)=O)C21CO1 (some centres not stated) | > 100 µM (inactive) | > 100 µM (inactive) | > 100 µM (inactive) | > 100 µM (inactive) | > 100 µM (inactive) | > 100 µM (inactive) | > 100 µM (inactive) | > 100 µM (inactive) | > 100 µM (inactive) | > 100 µM (inactive) | > 100 µM (inactive) | > 100 µM (inactive) | > 100 µM (inactive) | > 100 µM (inactive) | > 100 µM (inactive) | > 100 µM (inactive) | > 100 µM (inactive) | > 100 µM (inactive)
O=C(N/N=C\c1ccc(Cl)cc1)Nc1ccc2ccccc2c1 | 95.5 µM (inactive) | 34.5 µM (inactive) | 46.2 µM (inactive) | 87.9 µM (inactive) | 54.7 µM (inactive) | 53.7 µM (inactive) | 30.9 µM (inactive) | 41.9 µM (inactive) | 53.6 µM (inactive) | 27.6 µM (inactive) | 46.2 µM (inactive) | 32.8 µM (inactive) | 40.6 µM (inactive) | > 100 µM (inactive) | 86.7 µM (inactive) | > 100 µM (inactive) | 21.9 µM (inactive) | 49.3 µM (inactive)
COc1cccc2c(Nc3ccc(S(=O)(=O)NC(C)=O)cc3)c3ccc([N+](=O)[O-])cc3nc12 | 25.9 µM (inactive) | 31.4 µM (inactive) | 13.8 µM (inactive) | 13.1 µM (inactive) | > 48.4 µM (inactive) | 12.4 µM (inactive) | 56.8 µM (inactive) | 21.2 µM (inactive) | 30.5 µM (inactive) | 97.9 µM (inactive) | 45.7 µM (inactive) | 33.9 µM (inactive) | 57.1 µM (inactive) | 32.5 µM (inactive) | 36.6 µM (inactive) | 17.2 µM (inactive) | > 78.2 µM (inactive) | > 57.1 µM (inactive)
CC1C(c2ccccc2)OP(=O)(OC(C#N)c2ccccc2)N1C (configuration not stated) | 68.9 µM (inactive) | > 100 µM (inactive) | > 100 µM (inactive) | 37.6 µM (inactive) | > 100 µM (inactive) | 97.3 µM (inactive) | > 100 µM (inactive) | > 100 µM (inactive) | > 100 µM (inactive) | > 100 µM (inactive) | 97.9 µM (inactive) | 89.3 µM (inactive) | > 100 µM (inactive) | > 100 µM (inactive) | > 100 µM (inactive) | 37.8 µM (inactive) | > 100 µM (inactive) | > 100 µM (inactive)
Nc1ccn(C=C=CCO)c(=O)n1 | > 100 µM (inactive) | > 100 µM (inactive) | > 100 µM (inactive) | > 100 µM (inactive) | > 100 µM (inactive) | > 100 µM (inactive) | > 100 µM (inactive) | > 100 µM (inactive) | > 100 µM (inactive) | > 100 µM (inactive) | > 100 µM (inactive) | > 100 µM (inactive) | > 100 µM (inactive) | > 100 µM (inactive) | > 100 µM (inactive) | 5.85 µM (inactive) | > 100 µM (inactive) | > 100 µM (inactive)
CC(=O)OC1COC(n2nc(/C=C/c3ccc(Cl)cc3)c(=O)n(/N=C/c3ccccc3)c2=S)C(OC(C)=O)C1OC(C)=O (configuration not stated) | > 100 µM (inactive) | > 100 µM (inactive) | > 100 µM (inactive) | > 100 µM (inactive) | > 100 µM (inactive) | > 100 µM (inactive) | > 100 µM (inactive) | > 100 µM (inactive) | > 100 µM (inactive) | > 100 µM (inactive) | > 100 µM (inactive) | > 100 µM (inactive) | > 100 µM (inactive) | > 100 µM (inactive) | > 100 µM (inactive) | > 100 µM (inactive) | > 100 µM (inactive) | > 100 µM (inactive)
Oc1cc(Br)cc2cc(Br)cnc12 | 3.21 µM (inactive) | 2.05 µM (inactive) | 27.5 µM (inactive) | 5.35 µM (inactive) | 2.02 µM (inactive) | 2.99 µM (inactive) | 3.4 µM (inactive) | 12.2 µM (inactive) | 2.11 µM (inactive) | 1.6 µM (inactive) | 2.24 µM (inactive) | 2.4 µM (inactive) | 3.62 µM (inactive) | 1.58 µM (inactive) | 5.37 µM (inactive) | 2.55 µM (inactive) | 12.3 µM (inactive) | 2.72 µM (inactive)
CC(C)(C)OC(=O)NCCCCCCC(=O)Cc1ccccc1 | > 100 µM (inactive) |  | > 100 µM (inactive) | > 100 µM (inactive) | > 100 µM (inactive) | > 100 µM (inactive) | > 100 µM (inactive) | > 100 µM (inactive) | 84.3 µM (inactive) | > 100 µM (inactive) | > 100 µM (inactive) | > 100 µM (inactive) | > 100 µM (inactive) | > 100 µM (inactive) | > 100 µM (inactive) | 59 µM (inactive) | > 100 µM (inactive) | > 100 µM (inactive)
C=C(Cl)C(Cl)(CBr)CCC(Cl)C(C)(C)Cl (configuration not stated) | 1.57 µM (inactive) |  | 0.331 µM (active) | 0.879 µM (active) | 1.69 µM (inactive) | 2.3 µM (inactive) | 1.77 µM (inactive) | 2.16 µM (inactive) | 0.638 µM (active) | 1.35 µM (inactive) | 1.47 µM (inactive) | 7.24 µM (inactive) | 7.38 µM (inactive) | 1.61 µM (inactive) | 1.81 µM (inactive) | 17.7 µM (inactive) | 1.11 µM (active) | 3.01 µM (inactive)
